Data published in publication PMC8621857, “Structural Insights into the Azole Resistance of the Candida albicans Darlington Strain Using Saccharomyces cerevisiae Lanosterol 14α-Demethylase as a Surrogate” (Journal of Fungi, 2021).
Read-outs that look alike come from different tables or passages of the source.

Assays:
[1] = test system: S. cerevisiae strain AD2Δ (native wild-type ScLDM); assay: Broth microdilution drug susceptibility assay (MIC80), host strain AD2Δ; assay type: cell-based; details: Saccharomyces cerevisiae; strain AD2Δ; 48 h, 30 °C, pH 6.8; mean (± SEM), n = 3; read-out: MIC80
Procedure: Yeast strains used in this study (Supplementary Table S1) were prepared using the AD2Δ strain of S. cerevisiae as a host, using an established protocol. AD2Δ is hypersensitive to xenobiotics due to the deletion of seven major ABC transporters, including those responsible for the efflux of azole drugs. It is also deleted of the PDR3 transcriptional regulator, but contains the gain-of-function Pdr1-3 transcriptional regulator mutation that leads to constitutive overexpression from the PDR5 locus.
(§1) Azole susceptibility was measured as the mean drug concentration required to inhibit 80% of yeast growth (MIC80) compared to a non-drug control, using a standard broth microdilution assay. Serial dilutions of short- (FLC and VCZ), medium- (VT-1161), and long-tailed (ITC and PCZ) azole drugs, and the control drugs micafungin (MCF) and amphotericin B (AMB), were prepared in a 96-well microtiter plate in complete synthetic media lacking uracil, buffered to pH 6.8 [34]. Control and test cells were seeded at an optical density of 600 nm (OD600) of 0.005 (~1.5 × 10^4 colony forming units). After incubation for 48 h at 30 °C with constant agitation (200 rpm), the OD600 nm of each well was measured using a Synergy 2 multi-mode plate reader (BioTek Instruments, Winooski, VT, USA). The experiment was repeated three times (a total of nine measurements for the response of each strain to each drug). GraphPad Prism 5.0 software was used for statistical analysis, using a one-way analysis of variance with a Bonferroni post-hoc test. The statistical significance of comparisons was accepted when p < 0.05.

[2] = test system: S. cerevisiae strain AD3Δ ScErg11 I471T expressing ScLDM6×His I471T; assay: Broth microdilution drug susceptibility assay (MIC80), strain AD3Δ ScErg11 I471T; assay type: cell-based, Saccharomyces cerevisiae; details: for MIC80: Saccharomyces cerevisiae, 48 h, 30 °C, pH 6.8, mean (± SEM), n = 3; for MIC80 / MIC80/Relative Amount of ScLDM6×His / fold-resistance based on the relative amount of recombinant enzyme compared with strain AD3Δ: strain I471T; for increased susceptibility compared with AD3Δ: strain AD3Δ ScErg11 I471T, not corrected for expression; for MIC80/Relative Amount of ScLDM6×His / fold-resistance based on the relative amount of recombinant enzyme compared with strain AD3Δ: relative expression 0.51
Procedure: (§2) The native ScERG11 gene in yeast cells containing mutant ScERG11-6×His constructs in the PDR5 locus was disrupted by homologous recombination with a cassette encoding the His1 selection marker and sequences homologous with the regions bordering the endogenous ScERG11 ORF to create strains AD3Δ ScErg11 Y140H, AD3Δ ScErg11 I471T and AD3Δ ScErg11Y140H I471T [43]. Transformants were selected on SD-His agar plates incubated at 30 °C for 48–72 h. Genomic DNA was extracted, and DNA sequencing as above was used to confirm deletion of the native ERG11. Strain AD3Δ ScErg11 (denoted as AD3Δ), which overexpresses wild-type ScLDM6×His from the PDR5 locus and has the native ScERG11 gene disrupted, was used as a control strain [43].
as §1

[3] = test system: S. cerevisiae strain AD3Δ ScErg11 Y140H I471T expressing ScLDM6×His Y140H I471T; assay: Broth microdilution drug susceptibility assay (MIC80), strain AD3Δ ScErg11 Y140H I471T; assay type: cell-based, Saccharomyces cerevisiae; details: for MIC: Saccharomyces cerevisiae, strain Y140H + I471T, 48 h, 30 °C, pH 6.8, mean (± SEM), n = 3; for MIC80/Relative Amount of ScLDM6×His / fold-resistance based on the relative amount of recombinant enzyme compared with strain AD3Δ: strain Y140H+I471T, relative expression 0.41
Procedure: as §2, §1

ScLDM6×His I471T = target: T1, ScLDM6×His I471T (Saccharomyces cerevisiae, UniProt P10614, I471T); assay: Type II azole binding to affinity purified ScLDM6×His I471T; details: for ΔAmax: type II binding
T1 construct: structurally aligned mutations in recombinant hexahistidine-tagged full-length Saccharomyces cerevisiae LDM6×His (ScLDM6×His); 6×His (hexahistidine) (C); made in house; host or cells: Saccharomyces cerevisiae strain AD3Δ ScErg11 I471T (overexpression from the PDR5 locus, native ERG11 disrupted)
Procedure: Protein purification was carried out using established methods. In brief, a 12 L culture for each control and test strain was grown overnight in 1 L volumes of YPD medium (1% [w/v] yeast extract [BD Difco], 2% [w/v] peptone [BD Difco], and 2% [w/v] D-glucose) in baffled 3 L flasks at 30 °C, with constant agitation (140 rpm). Cells harvested by centrifugation were broken by bead-beating and crude membrane fractions obtained by differential centrifugation, as previously described. The protein concentration of the crude membranes was estimated using the Lowry assay, with bovine serum albumin (Thermo Fisher) used as the protein standard. The crude membranes (1 g at 2.5 mg/mL) were detergent-solubilized using 10× critical micelle concentration (CMC) n-decyl-β-D-maltoside (DM) (Anatrace, Maumee, OH, USA) in buffer containing 10% (w/v) glycerol, 250 mM NaCl, 20 mM Tris pH 7.5, 0.5 mM phenylmethanesulfonyl fluoride (PMSF), and 1 EDTA-free protease inhibitor pill (Roche, Basel, Switzerland) per 300 mL. When the protein was to be used to assess in vitro binding affinity for the test azoles, detergent solubilized ScLDM6×His recovered after centrifugation was affinity purified using a nickel-nitrilotriacetic acid (Ni-NTA)-agarose matrix (Qiagen). The bound ScLDM6×His was eluted from the matrix using an affinity purification buffer containing 50 mM L-histidine. The L-histidine was removed by washing the enzyme through centrifugal filtration, using a 50 kDa molecular-weight cut-off Amicon Ultra-4 filter (Sigma, Auckland, New Zealand).
The concentration of functional ScLDM6×His purified by the nickel affinity method was quantitated using the standard carbon monoxide (CO) binding method. Type II drug binding assays that measure absorbance changes due to ligand interactions with ScLDM6×His were performed for VCZ and ITC, using an established protocol. The peak429nm-trough410nm difference spectra plotted against azole concentration were used to generate drug binding curves. All calculations were performed using GraphPad Prism 5 Software.

[4] = I471T mutant ScLDM6×His, supplement, 'in the 0.5 μM range'
[5] = I471T mutant enzyme, in the presence of 2 µM enzyme, read-out: IC50 from type II binding curves
[6] = ScLDM6×His I471T, 2 µM enzyme, (± SEM), μM, read-out: [Azole]0.5

T1 sequence (P10614 whole entry I471T): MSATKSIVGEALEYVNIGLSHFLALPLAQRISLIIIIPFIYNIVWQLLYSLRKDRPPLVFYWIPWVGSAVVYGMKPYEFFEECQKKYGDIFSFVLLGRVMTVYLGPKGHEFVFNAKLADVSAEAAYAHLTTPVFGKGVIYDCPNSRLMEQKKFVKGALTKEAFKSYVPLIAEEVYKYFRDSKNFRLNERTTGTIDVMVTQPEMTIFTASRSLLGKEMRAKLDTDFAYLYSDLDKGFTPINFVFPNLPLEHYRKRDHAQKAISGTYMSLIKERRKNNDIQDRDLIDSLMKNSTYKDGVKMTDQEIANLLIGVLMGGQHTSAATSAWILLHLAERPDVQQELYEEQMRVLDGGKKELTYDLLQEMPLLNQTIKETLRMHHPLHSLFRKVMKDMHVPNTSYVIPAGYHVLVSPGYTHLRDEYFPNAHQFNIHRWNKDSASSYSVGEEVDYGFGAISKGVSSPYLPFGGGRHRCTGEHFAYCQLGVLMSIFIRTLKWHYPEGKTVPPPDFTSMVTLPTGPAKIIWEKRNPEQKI

Row | Structure (SMILES) | MIC80 [1] | MIC80 [2] | increased susceptibility compared with AD3Δ [2] | MIC80/Relative Amount of ScLDM6×His [2] | fold-resistance based on the relative amount of recombinant enzyme compared with strain AD3Δ [2] | MIC [3] | resistance conferred, relative expression taken into account ([3]; ScLDM6×His Y140H I471T (0.41 of wild-type) vs AD3Δ) | MIC80/Relative Amount of ScLDM6×His [3] | fold-resistance based on the relative amount of recombinant enzyme compared with strain AD3Δ [3] | Kd (ScLDM6×His I471T; [4]) | IC50 (ScLDM6×His I471T; [5]) | IC50 (ScLDM6×His I471T; [6]) | ΔAmax (ScLDM6×His I471T; ScLDM6×His I471T, (± SEM)) | Hill number (ScLDM6×His I471T; ScLDM6×His I471T, (± SEM)) | Kd (ScLDM6×His I471T; ScLDM6×His I471T, (± SEM)) | MIC80 higher than AD3Δ ScErg11 cells ([3]; strain AD3Δ ScErg11 Y140H I471T, not corrected for expression, p < 0.001) | MIC80 higher than cells overexpressing ScLDM6×His Y140H ([3]; strain AD3Δ ScErg11 Y140H I471T, p < 0.001)
1 | CCC(C)n1ncn(-c2ccc(N3CCN(c4ccc(OCC5COC(Cn6cncn6)(c6ccc(Cl)cc6Cl)O5)cc4)CC3)cc2)c1=O (stereo not shown) [ITC, itraconazole] | 0.0735 µM | 0.102 µM | 1.4 fold | 0.2 µM | 1.4 × | 0.108 µM | 1.8 fold | 0.263 µM | 1.8 × | ~500 nM | 0.6 to 0.8 µM | 0.79 µM | 0.06 (0.001) | 1.55 (0.19) | 700 nM | – | –
2 | C[C@@H](c1ncncc1F)[C@](O)(Cn1cncn1)c1ccc(F)cc1F [VCZ, voriconazole] | 0.0375 µM | 0.074 µM | 1.2 fold | 0.145 µM | 1.6 × | 0.25 µM | – | 0.609 µM | 6.5 × | ~500 nM | 0.6 to 0.8 µM | 0.75 µM | 0.07 (0.003) | 1.88 (0.23) | 580 nM | approximately 3 fold | 1.5 fold
